The target of one assay is T1, T[…] polymerase (Thermococcus sp., UniProt Q56366, A485L/D141A/E143A).
T1 construct: purchased
Description: Polymerase end-point (PEP) assay, Therminator. The assay is classed as biochemical, Thermococcus species 9°N-7. The text has this:
(§1) Numerous groups have employed qualitative, Sanger-based assays to estimate relative incorporation efficiencies of terminating nucleotide analogs compared to their natural nucleotide counterparts. Although useful, the ability to assay modified nucleotide analogs in the absence of natural nucleotides is not feasible using these assays. These two limitations led to a quantitative, polymerase end-point (PEP) assay, which is utilized in a high-throughput manner for screening numerous modified nucleotides against a number of well-characterized, commercially available polymerases. Identification of lead compounds with a specific DNA polymerase could then be prioritized for further kinetic studies. The PEP assay is designed with the polymerase concentration in excess of the primer/template complex (i.e., this complex is fully bounded with polymerase at the start of the titration), thereby limiting reaction to nucleotide binding and nucleotyl coupling steps. Limiting amounts of the desired nucleotide are then titrated across the appropriate concentration range (generally three orders of magnitude) to observe extension of a dye-labeled primer by gel electrophoresis. The end-point concentration is determined from a semi-log plot where the number of moles of substrate and product are equal, called the IC50 (i.e., incorporation concentration at 50%) value.
(§2) For all polymerases evaluated in this study, 40 nM of oligo-template (5′-TACGGAGCA-[…], interrogation base is underlined and bolded) was annealed to 5 nM BODIPY-FL labeled primer (5′-TTGTAAAACGACGGCCAGT) in 1× ThermoPol buffer (20 mM Tris-HCl, pH 8.8; 10 mM (NH4)2SO4, 10 mM KCl; 2 mM MgSO4; 0.1% Triton X-100, New England BioLabs) at 80° C. for 30 seconds, 57° C. for 30 seconds, and then cooled to 4° C. The primer/template complex is then diluted by one-half (i.e., its final concentration is 2.5 nM in a volume of 10 μL) by the addition of DNA polymerase, nucleotide analog, and ThermoPol buffer. This defines the lower limit of the IC50 value for nucleotide titrations to 1.25 nM (i.e., [primer]=[primer+1]). Polymerase reactions were incubated at their appropriate temperature for 10 minutes, then cooled to 4° C. and quenched with 10 μL of stop solution (98% deionized formamide; 10 mM Na2EDTA, pH 8.0; 25 mg/mL Blue Dextran, MW 2,000,000). Stopped reactions were heated to 90° C. for 30 seconds, and then placed on ice. […] The PEP assays were performed in triplicate for each DNA polymerase/nucleotide analog combination to calculate its IC50 values±one standard deviation.
(§3) The number of activity units for eight commercially available, 3′-exonuclease deficient (3′-exo-) DNA polymerases was first determined by titration with 2′-deoxyadenosine triphosphate (dATP, concentration range from 0.1 nM to 100 nM) with the goal of reaching the PEP IC50 limit of 1.25 nM (data not shown). In general, increasing the number of units reduced the IC50 values for dATP towards this limit, with exception with Taq, THERMINATOR™, and THERMINATOR™ II. For these enzymes, there was an increase in IC50 values for dATP with increasing enzyme concentration, which was not investigated further and presumed to be due to a direct relationship with increasing enzyme concentration and phosphorolysis. For these cases, the number of units used for subsequent PEP assays were those activity units that gave the lowest IC50 values for dATP.
(§4) WW1p129 and ddATP were then titrated using the PEP assay with the eight DNA polymerases (unit activities previously defined) in the concentration range of either 0.1 nM to 100 nM, 1 nM to 1μM, 10 nM to 10μM, or 100 nM to 100 μM (see Table 1). UV-light sensitive compounds were handled at all times in low light conditions to minimize conversion to dATP.

The next assay addresses T2, Bst DNA polymerase (Geobacillus stearothermophilus, UniProt P52026).
T2 construct: purchased
T2 sequence (P52026 1-876): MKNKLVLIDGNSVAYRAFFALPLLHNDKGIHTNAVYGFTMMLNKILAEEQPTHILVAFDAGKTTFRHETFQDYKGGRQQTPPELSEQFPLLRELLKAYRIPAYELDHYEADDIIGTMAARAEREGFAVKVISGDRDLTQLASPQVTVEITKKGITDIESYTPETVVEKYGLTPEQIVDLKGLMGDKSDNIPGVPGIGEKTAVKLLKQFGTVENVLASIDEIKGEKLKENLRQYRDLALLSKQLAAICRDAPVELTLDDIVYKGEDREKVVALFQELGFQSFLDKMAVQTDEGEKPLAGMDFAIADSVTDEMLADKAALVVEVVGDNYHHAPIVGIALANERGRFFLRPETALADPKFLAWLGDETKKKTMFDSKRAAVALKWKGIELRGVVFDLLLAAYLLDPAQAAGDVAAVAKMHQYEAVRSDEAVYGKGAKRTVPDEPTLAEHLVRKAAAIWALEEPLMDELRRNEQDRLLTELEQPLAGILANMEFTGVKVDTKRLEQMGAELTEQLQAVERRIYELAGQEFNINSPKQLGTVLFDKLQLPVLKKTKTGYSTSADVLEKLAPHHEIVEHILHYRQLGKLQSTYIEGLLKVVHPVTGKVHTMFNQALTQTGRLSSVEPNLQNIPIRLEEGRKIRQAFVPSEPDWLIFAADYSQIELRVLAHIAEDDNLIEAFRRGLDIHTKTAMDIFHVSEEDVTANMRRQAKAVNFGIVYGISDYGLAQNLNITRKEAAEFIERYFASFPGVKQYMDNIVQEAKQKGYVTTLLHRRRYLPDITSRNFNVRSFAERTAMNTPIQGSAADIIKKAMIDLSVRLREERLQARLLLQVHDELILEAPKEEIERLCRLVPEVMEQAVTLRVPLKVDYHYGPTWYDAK
Put plainly: Polymerase end-point (PEP) assay, Bst. The assay is classed as biochemical.
Text: as §1, §2, §3, §4

Assay [1] concerns the target T3, Klenow (3′-exo-) DNA polymerase (Escherichia coli, UniProt P00582, D355A/E357A).
T3 construct: Klenow(-exo-) DNA polymerase; purchased
Description: Polymerase end-point (PEP) assay, Klenow (3′-exo-). In kind it is biochemical. Conditions: Klenow (3′-exo-): 37° C.; incorporation concentration at 50%.
Text: as §1
(§5) For all polymerases evaluated in this study, 40 nM of oligo-template (5′-TACGGAGCA-[…], interrogation base is underlined and bolded) was annealed to 5 nM BODIPY-FL labeled primer (5′-TTGTAAAACGACGGCCAGT) in 1× ThermoPol buffer (20 mM Tris-HCl, pH 8.8; 10 mM (NH4)2SO4, 10 mM KCl; 2 mM MgSO4; 0.1% Triton X-100, New England BioLabs) at 80° C. for 30 seconds, 57° C. for 30 seconds, and then cooled to 4° C. The primer/template complex is then diluted by one-half (i.e., its final concentration is 2.5 nM in a volume of 10 μL) by the addition of DNA polymerase, nucleotide analog, and ThermoPol buffer. This defines the lower limit of the IC50 value for nucleotide titrations to 1.25 nM (i.e., [primer]=[primer+1]). […]

A further assay addresses T4, Taq DNA polymerase (Thermus aquaticus, UniProt P19821).
T4 construct: purchased
Description: Polymerase end-point (PEP) assay, Taq. The conditions noted are these: Taq: 68° C.; incorporation concentration at 50%. The assay is classed as biochemical.
Text: as §1, §5

Assay [2] has as its target T5, AMPLITAQ DNA polymerase, FS (Taq FS) (Thermus aquaticus, UniProt P19821, F667Y/G46D).
T5 construct: purchased
Description: Polymerase end-point (PEP) assay, Taq FS. In kind it is biochemical. Conditions: Taq FS: 68° C.; incorporation concentration at 50%.
Text: as §1, §5

Another assay deals with T6, T[…] DNA polymerase (Thermococcus sp., UniProt Q56366, A485L/D141A/E143A/Y409V).
T6 construct: purchased
Description: Polymerase end-point (PEP) assay, Therminator II. In kind it is biochemical, Thermococcus species 9°N-7. The conditions noted are these: Therminator II: 75° C.; incorporation concentration at 50%.
Text: as §1, §5

The target in assay [3] is T7, Vent (3′-exo-) DNA polymerase (Thermococcus litoralis, UniProt P30317, D141A/DEL1082-1471/DEL495-1032/E143A).
T7 construct: purchased
Description: Polymerase end-point (PEP) assay, Vent (3′-exo-). The assay is classed as biochemical.
Text: as §1, §5

Assay [4] concerns the target T8, DeepVent (3′-exo-) DNA polymerase (Pyrococcus sp., UniProt Q51334, D141A/DEL493-1029/E143A).
T8 construct: purchased
Put plainly: Polymerase end-point (PEP) assay, DeepVent (3′-exo-). The assay is classed as biochemical, Pyrococcus species GB-D.
Text: as §1, §5

The mark [5] stands for this setting: Table 2, incorporation concentration at 50%, read-out: IC50 values, Therminator.
Where [6] appears, read: Table 2, incorporation concentration at 50%, read-out: IC50 values, Bst.
The mark [7] stands for this setting: Bst: 65° C., IC50 = incorporation concentration at 50%, Table 1, read-out: IC50 values.
Setting [8] is: Therminator: 75° C., incorporation concentration at 50%, Table 1, read-out: IC50 values.
Where [9] appears, read: Vent (3′-exo-): 72° C., incorporation concentration at 50%, read-out: IC50 values.
Setting [10] is: DeepVent (3′-exo-): 72° C., incorporation concentration at 50%, read-out: IC50 values.

Like-named read-outs stand apart in the source and are kept apart here.

T8 sequence (Q51334 other isoform, or with tags, fused parts or gaps D141A/E143A/DEL493-1029): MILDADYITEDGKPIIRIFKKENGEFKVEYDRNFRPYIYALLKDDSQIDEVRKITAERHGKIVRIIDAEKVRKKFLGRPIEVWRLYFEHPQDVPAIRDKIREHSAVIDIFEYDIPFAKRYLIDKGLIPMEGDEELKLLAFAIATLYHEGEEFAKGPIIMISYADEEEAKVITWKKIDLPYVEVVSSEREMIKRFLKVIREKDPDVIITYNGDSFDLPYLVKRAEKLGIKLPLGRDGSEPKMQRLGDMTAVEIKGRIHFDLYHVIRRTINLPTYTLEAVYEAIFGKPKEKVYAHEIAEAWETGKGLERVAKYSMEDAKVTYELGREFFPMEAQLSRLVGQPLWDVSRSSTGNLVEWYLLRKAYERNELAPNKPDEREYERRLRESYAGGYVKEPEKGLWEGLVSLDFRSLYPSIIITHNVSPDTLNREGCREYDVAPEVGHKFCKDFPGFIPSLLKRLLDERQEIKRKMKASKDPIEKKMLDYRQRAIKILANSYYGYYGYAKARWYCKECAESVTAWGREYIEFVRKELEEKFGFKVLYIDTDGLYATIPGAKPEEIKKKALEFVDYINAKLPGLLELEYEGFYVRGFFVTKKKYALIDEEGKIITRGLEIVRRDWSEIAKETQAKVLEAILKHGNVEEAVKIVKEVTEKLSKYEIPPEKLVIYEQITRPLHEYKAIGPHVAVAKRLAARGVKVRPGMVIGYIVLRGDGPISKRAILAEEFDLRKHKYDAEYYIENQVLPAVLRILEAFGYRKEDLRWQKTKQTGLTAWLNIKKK
T6 sequence (Q56366 whole entry D141A/E143A/Y409V/A485L): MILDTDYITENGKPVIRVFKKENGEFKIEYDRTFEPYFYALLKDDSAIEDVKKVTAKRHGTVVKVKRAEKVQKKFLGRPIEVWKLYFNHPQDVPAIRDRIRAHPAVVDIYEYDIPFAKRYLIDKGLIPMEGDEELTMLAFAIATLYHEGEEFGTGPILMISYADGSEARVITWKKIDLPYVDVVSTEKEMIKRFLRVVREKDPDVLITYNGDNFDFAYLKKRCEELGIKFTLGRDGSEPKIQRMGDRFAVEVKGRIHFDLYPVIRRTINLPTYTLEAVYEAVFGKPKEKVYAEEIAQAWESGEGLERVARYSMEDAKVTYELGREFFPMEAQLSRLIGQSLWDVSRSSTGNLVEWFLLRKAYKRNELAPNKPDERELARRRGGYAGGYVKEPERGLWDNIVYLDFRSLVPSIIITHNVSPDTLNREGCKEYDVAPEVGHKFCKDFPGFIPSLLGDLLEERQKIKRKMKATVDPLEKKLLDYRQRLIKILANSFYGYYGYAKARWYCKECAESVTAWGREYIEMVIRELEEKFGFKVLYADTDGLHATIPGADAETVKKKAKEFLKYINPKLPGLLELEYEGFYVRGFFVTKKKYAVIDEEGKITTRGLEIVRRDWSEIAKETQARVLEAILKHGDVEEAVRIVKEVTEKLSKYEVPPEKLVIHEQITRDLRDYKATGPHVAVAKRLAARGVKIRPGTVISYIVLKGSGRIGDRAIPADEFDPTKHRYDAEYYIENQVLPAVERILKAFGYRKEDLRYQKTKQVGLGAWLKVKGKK
T3 sequence (P00582 324-928 D355A/E357A): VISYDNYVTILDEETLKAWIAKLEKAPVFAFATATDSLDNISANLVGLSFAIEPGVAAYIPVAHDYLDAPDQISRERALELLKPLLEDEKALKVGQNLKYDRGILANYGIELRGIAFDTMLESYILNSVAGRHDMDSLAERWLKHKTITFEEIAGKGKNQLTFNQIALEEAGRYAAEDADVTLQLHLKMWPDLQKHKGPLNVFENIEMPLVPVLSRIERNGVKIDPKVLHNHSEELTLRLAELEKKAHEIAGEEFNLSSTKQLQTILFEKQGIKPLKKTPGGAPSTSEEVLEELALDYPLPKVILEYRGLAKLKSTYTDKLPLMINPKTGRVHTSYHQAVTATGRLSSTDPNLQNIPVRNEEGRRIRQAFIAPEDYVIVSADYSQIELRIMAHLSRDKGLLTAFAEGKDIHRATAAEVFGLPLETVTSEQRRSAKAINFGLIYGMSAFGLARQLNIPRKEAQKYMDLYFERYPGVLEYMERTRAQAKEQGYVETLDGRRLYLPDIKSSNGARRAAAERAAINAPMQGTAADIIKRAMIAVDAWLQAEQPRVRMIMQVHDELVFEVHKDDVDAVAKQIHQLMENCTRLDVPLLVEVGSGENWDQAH
T5 sequence (P19821 whole entry G46D/F667Y): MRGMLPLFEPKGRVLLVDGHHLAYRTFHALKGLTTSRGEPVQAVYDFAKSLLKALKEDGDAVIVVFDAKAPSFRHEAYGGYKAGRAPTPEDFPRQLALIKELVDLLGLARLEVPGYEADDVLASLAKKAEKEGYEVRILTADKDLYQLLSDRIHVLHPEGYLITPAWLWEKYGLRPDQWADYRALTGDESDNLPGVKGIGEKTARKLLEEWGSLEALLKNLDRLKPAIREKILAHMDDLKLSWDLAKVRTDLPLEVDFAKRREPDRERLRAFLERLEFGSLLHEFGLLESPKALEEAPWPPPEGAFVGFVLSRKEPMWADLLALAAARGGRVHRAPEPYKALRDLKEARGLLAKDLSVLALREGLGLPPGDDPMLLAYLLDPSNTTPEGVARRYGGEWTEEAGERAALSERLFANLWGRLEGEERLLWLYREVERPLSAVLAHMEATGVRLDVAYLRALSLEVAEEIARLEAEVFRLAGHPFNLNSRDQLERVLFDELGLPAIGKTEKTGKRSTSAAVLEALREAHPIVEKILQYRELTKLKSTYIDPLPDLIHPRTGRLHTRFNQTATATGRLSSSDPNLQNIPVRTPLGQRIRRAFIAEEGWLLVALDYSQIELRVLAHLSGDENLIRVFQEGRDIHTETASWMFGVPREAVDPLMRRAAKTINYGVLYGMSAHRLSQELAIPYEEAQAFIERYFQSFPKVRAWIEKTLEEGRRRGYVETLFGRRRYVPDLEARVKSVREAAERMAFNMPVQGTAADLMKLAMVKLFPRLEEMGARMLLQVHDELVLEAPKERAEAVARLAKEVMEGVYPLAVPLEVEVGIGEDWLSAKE
T1 sequence (Q56366 whole entry D141A/E143A/A485L): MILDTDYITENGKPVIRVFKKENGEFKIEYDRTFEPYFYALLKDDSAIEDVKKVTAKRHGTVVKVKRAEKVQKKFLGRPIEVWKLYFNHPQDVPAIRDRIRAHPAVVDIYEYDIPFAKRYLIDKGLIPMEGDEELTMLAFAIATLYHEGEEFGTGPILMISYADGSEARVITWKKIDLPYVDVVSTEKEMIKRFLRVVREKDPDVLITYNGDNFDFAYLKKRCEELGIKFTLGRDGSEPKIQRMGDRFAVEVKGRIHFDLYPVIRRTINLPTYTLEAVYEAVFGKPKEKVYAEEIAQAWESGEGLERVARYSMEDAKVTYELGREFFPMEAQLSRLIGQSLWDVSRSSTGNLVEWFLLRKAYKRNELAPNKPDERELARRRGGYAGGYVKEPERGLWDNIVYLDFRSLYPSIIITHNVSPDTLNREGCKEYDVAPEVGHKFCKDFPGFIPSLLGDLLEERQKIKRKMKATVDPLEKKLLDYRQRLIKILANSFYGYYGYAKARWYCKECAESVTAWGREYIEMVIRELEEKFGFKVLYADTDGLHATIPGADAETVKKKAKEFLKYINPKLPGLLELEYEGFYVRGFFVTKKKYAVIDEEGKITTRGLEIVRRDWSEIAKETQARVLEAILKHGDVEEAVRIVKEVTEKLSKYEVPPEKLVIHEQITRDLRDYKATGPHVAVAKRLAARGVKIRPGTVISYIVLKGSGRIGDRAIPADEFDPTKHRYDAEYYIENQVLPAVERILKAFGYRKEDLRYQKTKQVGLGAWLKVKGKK
T4 sequence (P19821 whole entry): as the sequence (P19821 whole entry G46D/F667Y) above, with D46G, Y667F counted along it
T7 sequence (P30317 other isoform, or with tags, fused parts or gaps D141A/E143A/DEL495-1032/DEL1082-1471): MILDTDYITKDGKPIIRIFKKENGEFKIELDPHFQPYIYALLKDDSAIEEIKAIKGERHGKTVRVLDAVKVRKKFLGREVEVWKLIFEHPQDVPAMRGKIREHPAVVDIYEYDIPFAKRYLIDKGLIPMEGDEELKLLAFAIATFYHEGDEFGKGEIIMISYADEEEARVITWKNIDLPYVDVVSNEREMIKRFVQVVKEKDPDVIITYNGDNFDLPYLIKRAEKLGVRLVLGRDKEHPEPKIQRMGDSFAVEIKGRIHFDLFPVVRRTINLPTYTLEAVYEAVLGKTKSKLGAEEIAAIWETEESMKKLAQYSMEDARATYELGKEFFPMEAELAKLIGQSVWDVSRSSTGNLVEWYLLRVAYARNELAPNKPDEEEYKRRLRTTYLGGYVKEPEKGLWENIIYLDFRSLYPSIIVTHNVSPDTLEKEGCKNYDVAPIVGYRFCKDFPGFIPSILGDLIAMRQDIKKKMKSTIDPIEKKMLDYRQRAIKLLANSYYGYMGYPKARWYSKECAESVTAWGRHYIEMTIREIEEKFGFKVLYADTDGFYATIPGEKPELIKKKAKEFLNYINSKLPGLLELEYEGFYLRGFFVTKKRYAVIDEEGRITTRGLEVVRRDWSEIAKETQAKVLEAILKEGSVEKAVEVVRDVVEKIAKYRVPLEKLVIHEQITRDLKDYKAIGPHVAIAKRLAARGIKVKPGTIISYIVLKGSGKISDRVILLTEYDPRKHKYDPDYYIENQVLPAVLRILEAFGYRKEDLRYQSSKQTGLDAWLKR

Usually IC50 stands for the concentration that gives 50% inhibition. For “6-JOE Labeled 5-[4-(3-Amino-1-propynyl)-2-nitrobenzyloxymethyl]-2′-deoxyuridine-5′-triphosphate [WW2p075]”, the IC50 on T[…] polymerase (setting [5]) came out at 3.8 ± 1.1 nM.
Regarding `O=c1[nH]c(=O)n([C@H]2C[C@H](O)[C@@H](COP(=O)(O)OP(=O)(O)OP(=O)(O)O)O2)cc1COCc1ccccc1[N+](=O)[O-]` [VL3p03085, 5-(2-Nitrobenzyloxymethyl)-2′-deoxyuridine-5′-triphosphate], the values for the IC50 on Bst DNA polymerase (setting [6]) and at T[…] polymerase (setting [5]) were 138 ± 38 nM and 1.1 ± 0.1 nM, respectively.
With `O=[N+]([O-])c1ccccc1CNc1ncnc2c1ncn2[C@H]1C[C@H](O)[C@@H](COP(=O)(O)OP(=O)(O)OP(=O)(O)O)O1` [WW1p129, N^6-(2-Nitrobenzyl)-2′-deoxyadenosine-5′-triphosphate], the IC50 came out at 21 ± 3 nM on Bst DNA polymerase (setting [7]); 39 ± 9 nM at Bst DNA polymerase (setting [6]); 4.3 ± 0.2 nM in assay [1]; 2100 ± 200 nM on Taq DNA polymerase; 890 ± 60 nM in assay [2]; 2.5 ± 0.4 nM at T[…] polymerase (setting [5]). Also, the IC50 was determined as 3.1 ± 0.4 nM at T[…] polymerase (setting [8]), 7.8 ± 0.7 nM at T[…] DNA polymerase, 2.1 ± 0.2 nM in assay [3] (setting [9]) and 11 ± 0.6 nM in assay [4] (setting [10]).
Take `O=c1nc(NCc2ccccc2[N+](=O)[O-])ccn1[C@H]1C[C@H](O)[C@@H](COP(=O)(O)OP(=O)(O)OP(=O)(O)O)O1` [WW2p044, N^4-(2-Nitrobenzyl)-2′-deoxycytidine-5′-triphosphate]: the figures for the IC50 on Bst DNA polymerase (setting [6]) and on T[…] polymerase were 57 ± 11 nM and 1.8 ± 0.2 nM, respectively.
As for `Nc1nc(OCc2ccccc2[N+](=O)[O-])c2ncn([C@H]3C[C@H](O)[C@@H](COP(=O)(O)OP(=O)(O)OP(=O)(O)O)O3)c2n1` [WW2p077, O^6-(2-Nitrobenzyl)-2′-deoxyguanosine-5′-triphosphate], the IC50 on Bst DNA polymerase (setting [6]) was found to be 3800 ± 200 nM; on T[…] polymerase (setting [5]), 6.9 ± 0.5 nM.
On to `CN(C)c1ccc2c(-c3cc(C(=O)NCC#Cc4ccc(CNc5ccn([C@H]6C[C@H](O)[C@@H](COP(=O)(O)OP(=O)(O)OP(=O)(O)O)O6)c(=O)n5)c([N+](=O)[O-])c4)ccc3C(=O)[O-])c3ccc(=[N+](C)C)cc-3oc2c1` [WW2p080, 6-TAMRA Labeled N^4-[4-(3-Amino-1-propynyl)-2-nitrobenzyl]-2′-deoxycytidine-5′-triphosphate], for which the IC50 on T[…] polymerase (setting [5]) is 3 ± 0.6 nM.
On to `Nc1nc(OCc2ccc(C#CCNC(=O)c3ccc(C(=O)[O-])c(C4=c5cc6c7c(c5Oc5c4cc4c8c5CCCN8CCC4)CCC[N+]=7CCC6)c3)cc2[N+](=O)[O-])c2ncn([C@H]3C[C@H](O)[C@@H](COP(=O)(O)OP(=O)(O)OP(=O)(O)O)O3)c2n1` [WW2p121, 6-ROX Labeled O^6-[4-(3-Amino-1-propynyl)-2-nitrobenzyl]-2′-deoxyguanosine-5′-triphosphate], for which the IC50 on T[…] polymerase stood at 6.3 ± 0.4 nM.
Turning to `Nc1ncnc2c1ncn2[C@H]1C[C@H](O)[C@@H](COP(=O)(O)OP(=O)(O)OP(=O)(O)O)O1` [dATP, 2′-deoxyadenosine triphosphate], the IC50 in assay [1] was found to be 1.6 ± 0.1 nM; on Taq DNA polymerase, 5.5 ± 0.5 nM; in assay [2] it was 5.3 ± 0.1 nM; on T[…] polymerase (setting [8]) it was 2.3 ± 0.3 nM; on T[…] DNA polymerase, 4.4 ± 0.6 nM; in assay [3], 1.6 ± 0.2 nM. Further, the IC50 in assay [4] turned out to be 2.8 ± 0.2 nM.
In the case of `Nc1ncnc2c1ncn2[C@H]1CC[C@@H](COP(=O)(O)OP(=O)(O)OP(=O)(O)O)O1` [ddATP], the IC50 on Bst DNA polymerase (setting [7]) stood at 370 ± 30 nM; in assay [1], 29 ± 5 nM; on Taq DNA polymerase it was 12600 ± 900 nM; in assay [2] it was 3.3 ± 0.1 nM; at T[…] polymerase (setting [8]), 9.7 ± 1.1 nM; at T[…] DNA polymerase, 230 ± 30 nM. The IC50 is 550 ± 40 nM in assay [3] (setting [9]) and 3400 ± 400 nM in assay [4] (setting [10]).

The values are drawn from patent US7964352B2, “3′-OH unblocked nucleotides and nucleosides, base modified with labels and photocleavable, terminating groups and methods for their use in DNA sequencing” (priority 2006, dated 2011).
